Source: the NIST ThermoML archive (doi:10.1016/j.jct.2013.06.022)
“And” between values parts separate entries of the source, which are not always exact repeats. Identical values can stand only once.

How the values were obtained:
[1] = Crystal; for vapor or sublimation pressure: Calculated from knudsen effusion weight loss; for Normal melting temperature: DTA
[2] = Molar enthalpy of transition or fusion; details: Crystal; DSC

COc1ccc(C(N)=O)cc1 [4-methoxybenzamide]
[1]
Details | vapor or sublimation pressure
357.12 K | 0.000103 kPa
359.19 K | 0.000128 kPa and 0.000124 kPa
361.16 K | 0.000156 kPa and 0.000154 kPa
363.12 K | 0.000195 kPa and 0.000193 kPa
365.2 K | 0.000242 kPa and 0.000238 kPa
367.16 K | 0.000292 kPa and 0.00029 kPa and 0.000299 kPa
369.12 K | 0.000366 kPa and 0.000368 kPa and 0.000367 kPa
371.18 K | 0.000455 kPa and 0.000442 kPa and 0.000452 kPa
373.15 K | 0.000548 kPa and 0.000535 kPa and 0.000556 kPa
375.11 K | 0.000689 kPa and 0.000681 kPa and 0.000685 kPa
377.18 K | 0.000833 kPa and 0.000838 kPa and 0.000812 kPa
379.15 K | 0.001012 kPa and 0.000985 kPa and 0.000979 kPa

Details | Molar enthalpy of transition or fusion [kcal/mol] | Normal melting temperature [°C]
[1] | – | 167.49
[2] | 6.94 | –

COc1ccccc1C(N)=O [2-methoxybenzamide]
[1]
Details | vapor or sublimation pressure
335.12 K | 0.0001 kPa and 0.000101 kPa
337.18 K | 0.000126 kPa and 0.000124 kPa
339.16 K | 0.000155 kPa and 0.000153 kPa
341.12 K | 0.000198 kPa and 0.000195 kPa
343.16 K | 0.000248 kPa and 0.000241 kPa and 0.000249 kPa
345.16 K | 0.000305 kPa and 0.0003 kPa and 0.000309 kPa
347.11 K | 0.000389 kPa and 0.000382 kPa and 0.000385 kPa
349.15 K | 0.000486 kPa and 0.000474 kPa and 0.000483 kPa
351.16 K | 0.000594 kPa and 0.000581 kPa
353.12 K | 0.00075 kPa and 0.000738 kPa and 0.000736 kPa
355.17 K | 0.000924 kPa and 0.000926 kPa and 0.00091 kPa
357.16 K | 0.001122 kPa and 0.001121 kPa and 0.001106 kPa

Details | Molar enthalpy of transition or fusion [kcal/mol] | Normal melting temperature [°C]
[1] | – | 128.51
[2] | 6.5 | –

COc1cccc(C(N)=O)c1 [3-methoxybenzamide]
[1]
Details | vapor or sublimation pressure
345.11 K | 7.2e-05 kPa and 7.1e-05 kPa
347.12 K | 9.2e-05 kPa and 8.8e-05 kPa
349.16 K | 0.000112 kPa and 0.000117 kPa
351.12 K | 0.000143 kPa and 0.000142 kPa
353.16 K | 0.00018 kPa and 0.000175 kPa and 0.000178 kPa
355.16 K | 0.000219 kPa and 0.000225 kPa
357.12 K | 0.000283 kPa and 0.000287 kPa and 0.000286 kPa
359.16 K | 0.000357 kPa and 0.000346 kPa
361.14 K | 0.000432 kPa and 0.000428 kPa and 0.000443 kPa
363.13 K | 0.00055 kPa and 0.000547 kPa and 0.000546 kPa
365.17 K | 0.00068 kPa and 0.000682 kPa and 0.000658 kPa
367.13 K | 0.000844 kPa and 0.000848 kPa and 0.000842 kPa
369.17 K | 0.001047 kPa and 0.001014 kPa
371.15 K | 0.001291 kPa and 0.001251 kPa and 0.00125 kPa

Details | Molar enthalpy of transition or fusion [kcal/mol] | Normal melting temperature [°C]
[1] | – | 134.00
[2] | 6.84 | –
